According to patent US8071612B2, “6-alkenyl and 6-phenylalkyl substituted 2-quinolinones and 2-quinoxalinones as poly(ADP-ribose) polymerase inhibitors” (Janssen Pharmaceutica, NV, priority 2004, dated 2011):

How the values were obtained:
[1] = test system: infarct size in the heart; conditions: rabbits, cited from earlier work
colitis = conditions: rats, colitis by intraluminal trinitrobenzene sulfonic acid in 50% ethanol; cited from earlier work
PARP-1 enzyme [2] = target: T1, PARP-1 enzyme (Homo sapiens, UniProt P09874); experiment: In vitro Scintillation Proximity Assay (SPA) for PARP-1 inhibitory activity; format: biochemical; conditions: nicked DNA activated PARP-1, [3H]-NAD+, biotinylated histones; read-out: In vitro SPA pIC50 (converted)
T1 construct: made in house
T1 sequence (P09874 whole entry): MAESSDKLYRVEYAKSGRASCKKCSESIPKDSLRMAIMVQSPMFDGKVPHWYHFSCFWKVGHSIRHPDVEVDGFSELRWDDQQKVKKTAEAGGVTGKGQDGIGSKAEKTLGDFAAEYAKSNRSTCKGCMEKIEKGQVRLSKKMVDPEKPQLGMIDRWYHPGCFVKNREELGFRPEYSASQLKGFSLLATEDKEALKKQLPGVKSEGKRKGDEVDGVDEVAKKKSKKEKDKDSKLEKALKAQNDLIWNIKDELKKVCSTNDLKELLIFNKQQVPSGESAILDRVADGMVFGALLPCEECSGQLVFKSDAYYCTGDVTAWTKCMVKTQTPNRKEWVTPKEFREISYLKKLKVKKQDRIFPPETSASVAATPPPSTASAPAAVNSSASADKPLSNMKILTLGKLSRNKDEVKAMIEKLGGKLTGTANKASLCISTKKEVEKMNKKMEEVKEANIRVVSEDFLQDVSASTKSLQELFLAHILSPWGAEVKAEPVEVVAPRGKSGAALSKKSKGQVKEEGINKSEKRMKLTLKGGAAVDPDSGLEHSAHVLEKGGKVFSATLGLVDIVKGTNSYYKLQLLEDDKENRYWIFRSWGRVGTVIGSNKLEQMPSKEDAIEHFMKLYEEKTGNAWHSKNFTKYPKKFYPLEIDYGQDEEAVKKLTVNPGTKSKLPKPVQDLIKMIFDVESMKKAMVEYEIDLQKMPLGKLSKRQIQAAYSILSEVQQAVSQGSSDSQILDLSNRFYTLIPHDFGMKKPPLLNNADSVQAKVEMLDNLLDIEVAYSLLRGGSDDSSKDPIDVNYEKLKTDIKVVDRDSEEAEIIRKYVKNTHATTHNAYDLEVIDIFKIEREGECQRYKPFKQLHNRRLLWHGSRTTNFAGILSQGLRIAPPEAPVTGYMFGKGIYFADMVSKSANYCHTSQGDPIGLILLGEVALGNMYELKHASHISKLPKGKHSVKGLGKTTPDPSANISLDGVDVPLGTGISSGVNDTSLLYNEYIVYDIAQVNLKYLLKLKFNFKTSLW
In short: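 Human PARP-1 (5–10 μg/ml), activated by nicked DNA (2 μg/ml), ADP-ribosylated biotinylated histones (2 μg/ml) using [3H]-NAD+ as donor for 15 min at room temperature in Tris pH 8/DTT/MgCl2. The reaction was stopped with NAD+ (2 mM final) and read by SPA scintillation counting. IC50 was interpolated from blank-corrected % of control and reported as pIC50.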

PARP-1 enzyme [3] = target: T1, PARP-1 enzyme; experiment: In vitro filtration assay for PARP-1 inhibitory activity; format: biochemical; conditions: nicked DNA activated PARP-1, [32P]-NAD, histones; read-out: In vitro filtration assay pIC50 (converted)
Method: Compounds of the present invention were tested in an in vitro filtration assay assessing PARP-1 activity (triggered in the presence of nicked DNA) by means of its histone poly (ADP-ribosyl)ation activity using [^32P]-NAD as ADP-ribosyl donor. The radioactive ribosylated histones were precipitated by trichloroacetic acid (TCA) in 96-well filterplates and the incorporated [^32P] measured using a scintillation counter
A mixture of histones (stock solution: 5 mg/ml in H2O), NAD (stock solution: 100 mM in H2O), and [^32P]-NAD^+ in incubation buffer (50 mM Tris/HCl, pH 8; 0.2 mM DTT; 4 mM MgCl2) was made. A mixture of the PARP-1 enzyme (5-10 μg/ml) and nicked DNA was also made. The nicked DNA was prepared as described in the in vitro SPA for PARP-1 inhibitory activity. Seventy-five μl of the PARP-1 enzyme/DNA mixture together with 1 μl of compound in DMSO and 25 μl of histones-NAD^+/[^32P]-NAD^+ mixture was added per well of a 96-well filterplate (0.45 μm, supplier Millipore). The final concentrations in the incubation mixture were 2 μg/ml for the histones, 0.1 mM for the NAD^+, […] (0.5 μC) for the [^32P]-NAD^+ and 2 μg/ml for the nicked DNA. Plates were incubated for 15 min. at room temperature and the reaction was terminated by the addition of 10 μl ice cold 100% TCA followed by the addition of 10 μl ice-cold BSA solution (1% in H2O). The protein fraction was allowed to precipitate for 10 min. at 4° C. and plates were vacuum filtered. The plates were subsequently washed with, for each well, 1 ml of 10% ice cold TCA, 1 ml of 5% ice cold TCA and 1 ml of 5% TCA at room temperature. Finally 100 μl of scintillation solution (Microscint 40, Packard) was added to each well and the plates were transferred to a TopCountNXT™ (supplier: Packard) for scintillation counting and values were expressed as counts per minute (cpm). For each experiment, controls (containing PARP-1 enzyme and DMSO without compound), a blank incubation (containing DMSO but no PARP-1 enzyme or compound) and samples (containing PARP-1 enzyme and compound dissolved in DMSO) were run in parallel. All compounds tested were dissolved and eventually further diluted in DMSO. In first instance, compounds were tested at a concentration of 10^−5M. […] In each test, the blank value was subtracted from both the control and the sample values. The control sample represented maximal PARP-1 enzyme activity. For each sample, the amount of cpm was expressed as a percentage of the mean cpm value of the controls. When appropriate, IC50-values (concentration of the drug, needed to reduce the PARP-1 enzyme activity to 50% of the control) were computed using linear interpolation between the experimental points just above and below the 50% level. Herein the effects of test compounds are expressed as pIC50 (the negative log value of the IC50-value). As a reference compound, 4-amino-1,8-naphthalimide was included to validate the filtration assay.

Row | Structure (SMILES) | reduction in infarct size ([1]; single injection 1 mg/kg) | reduction in infarct size in the heart ([1]; single injection 10 mg/kg, one minute before occlusion or one minute before reperfusion) | effect on inflammatory response, morphology and energetic status of the distal colon (colitis) | IC50 (PARP-1 enzyme [2]) [nM] | IC50 (PARP-1 enzyme [3]) [nM] | melting point [°C]
1 | Oc1cccc2c(O)nccc12 [1,5-dihydroxyisoquinoline] | 38-48% |  |  |  |  | 
2 | NC(=O)c1cccc(N)c1 [3-amino-benzamide] |  | 32-42% | reduced the inflammatory response and restored the morphology and the energetic status of the distal colon |  |  | 
3 | CNC(c1ccccc1)c1ccc2[nH]c(=O)c(C)cc2c1 (stereo not shown) [Compound 1] |  |  |  | 285 | 2330 | 174.3
4 | CCc1cc2cc(C(OC(C)=O)c3ccccc3)ccc2[nH]c1=O (stereo not shown) [Compound 3] |  |  |  | 407 | 4340 | 168.2
5 | Cc1cc2cc(C(C#N)c3ccccc3)ccc2[nH]c1=O (stereo not shown) [Compound 4] |  |  |  | 435 | 2670 | 227.5
6 | Cc1cc2cc(C(c3ccccc3)n3cncn3)ccc2[nH]c1=O (stereo not shown) [Compound 5] |  |  |  | 1400 | 9440 | 254.2
7 | Cc1cc2cc(C(c3ccccc3)N(C)C)ccc2[nH]c1=O (stereo not shown) [Compound 6] |  |  |  | 957 | 3940 | 226.7
8 | CC(=O)NCC(c1ccccc1)c1ccc2[nH]c(=O)c(C)cc2c1 (stereo not shown) [Compound 8] |  |  |  | 213 | 2540 | 206.2
9 | COC(c1ccccc1)c1ccc2[nH]c(=O)c(C)cc2c1 (stereo not shown) [Compound 9] |  |  |  | 1800 | 9400 | 207.3
10 | CCc1cc2cc(C(c3ccc4c(c3)OCCO4)C3CCN(C/C=C/c4ccccc4)CC3)ccc2[nH]c1=O (stereo not shown) [Compound 14] |  |  |  | 97.1 |  | 107
11 | CCc1cc2cc(C(CCN3CCCCC3)c3ccc4c(c3)OCCO4)ccc2[nH]c1=O (stereo not shown) [Compound 16] |  |  |  | 9.2 |  | 181
12 | CCc1cc2cc(C(c3ccccc3)n3ccnc3)ccc2[nH]c1=O (stereo not shown) [Compound 17] |  |  |  | 152 | 619 | 220.1
13 | CCc1cc2cc(C(NC=O)c3ccc4c(c3)OCCO4)ccc2[nH]c1=O (stereo not shown) [Compound 18] |  |  |  | 19.5 |  | > 260
14 | CCc1nc2cc(CC(O)c3ccc(Cl)cc3)ccc2[nH]c1=O (stereo not shown) [Compound 19] |  |  |  | 256 |  | 204
15 | CCc1nc2cc(CC(c3ccc(Cl)cc3)n3ccnc3)ccc2[nH]c1=O (stereo not shown) [Compound 20] |  |  |  | 275 | 1750 | 270
16 | CCc1nc2cc(CC(c3ccc(Cl)cc3)N3CCCC3)ccc2[nH]c1=O (stereo not shown) [Compound 21] |  |  |  | 191 |  | 194
17 | CCc1nc2cc(C(c3ccc(Cl)cc3)n3cncn3)ccc2[nH]c1=O (stereo not shown) [Compound 22] |  |  |  | 366 | 4050 | 188
18 | CCc1cc2cc(C(=C3CCNCC3)c3ccc4c(c3)OCCO4)ccc2[nH]c1=O [Compound 131] |  |  |  | 27.7 |  | 249
19 | CCc1cc2cc(C(=C3CCN(CCc4ccc(OC)cc4)CC3)c3ccc4c(c3)OCCO4)ccc2[nH]c1=O [Compound 132] |  |  |  | 57.1 |  | 203
20 | CCc1cc2cc(C(=C3CCN(CC(O)COc4ccc(OC)cc4)CC3)c3ccc4c(c3)OCCO4)ccc2[nH]c1=O (stereo not shown) [Compound 133] |  |  |  | 124 |  | 219
